Data on six compounds can be found in US8030498B2, “Benzoylpyrazole compounds and herbicides containing them” (Ishihara Sangyo Kaisha, Ltd., priority 2005, dated 2011).

Format in all cases: in vivo
In experiment [1] the test system is barnyardgrass (Echinochloa crus-galli L.). In words: Test Example 1: foliar treatment, growth inhibition rate, barnyardgrass. The conditions noted are these: visually observed 17th to 23rd day after application. An excerpt:
(§1) Upland field soil was put into a 1/170,000 hectare pot, and seeds of various plants were sown. When the respective plants reached predetermined leaf stage ((1) barnyardgrass (Echinochloa crus-galli L.); 0.8 to 2.5 leaf stage, (2) crabgrass (Digitaria sanguinalis L.): 0.5 to 3.0 leaf stage, (3) greenfoxtail (Setaria viridis L.): 1.0 to 3.0 leaf stage, (4) redroot pigweed (Amaranthus retroflexus L.): cotyledon stage to 2.0 leaf stage, (5) prickly sida (Sida spinosa L.): cotyledon stage to 1.1 leaf stage, (6) velvetleaf (Abutilon theophrasti MEDIC.): cotyledon stage to 1.5 leaf stage, (7) rice (Oryza sativa L.): 1.0 to 2.5 leaf stage, (8) wheat (Triticum spp.): 1.7 to 3.4 leaf stage, (9) corn (Zea mays L.): 2.0 to 3.5 leaf stage, and (10) soybean (Glycine max Merr.): primary leaf stage to 0.3 leaf stage), wettable powders or emulsifiable concentrates of the compounds of the present invention prepared in accordance with a conventional preparation method, were weighed so that the active ingredients became the prescribed amounts, and diluted with water in an amount corresponding to 500 liter per 1 hectare. 0.1 vol % of an agricultural spreader was further added to the respective diluted liquids, followed by foliar treatment with a small sprayer.
(§2) On the 17th to 23rd day after application, the state of growth of the respective plants was visually observed, and the herbicidal effect was evaluated in accordance with a growth inhibition rate (%) of 0 (equivalent to the non-treated area) to 100% (complete kill).

The subject of experiment [2] is crabgrass (Digitaria sanguinalis L.). In words: Test Example 1: foliar treatment, growth inhibition rate, crabgrass. As to conditions: visually observed 17th to 23rd day after application.
Text: as §1, §2

The test system of experiment [3] is greenfoxtail (Setaria viridis L.). In words: Test Example 1: foliar treatment, growth inhibition rate, greenfoxtail. The conditions noted are these: visually observed 17th to 23rd day after application.
Text: as §1, §2

For experiment [4], the system named is redroot pigweed (Amaranthus retroflexus L.). In words: Test Example 1: foliar treatment, growth inhibition rate, redroot pigweed. The conditions noted are these: visually observed 17th to 23rd day after application.
Text: as §1, §2

Experiment [5] concerns prickly sida (Sida spinosa L.). Description: Test Example 1: foliar treatment, growth inhibition rate, prickly sida. The conditions noted are these: visually observed 17th to 23rd day after application.
Text: as §1, §2

Experiment [6] relates to velvetleaf (Abutilon theophrasti MEDIC.). Description: Test Example 1: foliar treatment, growth inhibition rate, velvetleaf. The conditions noted are these: visually observed 17th to 23rd day after application.
Text: as §1, §2

The subject of experiment [7] is rice (Oryza sativa L.). In words: Test Example 1: foliar treatment, growth inhibition rate, rice. As to conditions: visually observed 17th to 23rd day after application.
Text: as §1, §2

In experiment [8] the test system is wheat (Triticum spp.). Description: Test Example 1: foliar treatment, growth inhibition rate, wheat. The conditions noted are these: 63 g/ha active ingredient, visually observed 17th to 23rd day after application.
Text: as §1, §2

Experiment [9] deals with corn (Zea mays L.). Description: Test Example 1: foliar treatment, growth inhibition rate, corn. The conditions noted are these: visually observed 17th to 23rd day after application.
Text: as §1, §2

The subject of experiment [10] is soybean (Glycine max Merr.). Description: Test Example 1: foliar treatment, growth inhibition rate, soybean. As to conditions: visually observed 17th to 23rd day after application.
Text: as §1, §2

With `CCSC(=O)Oc1c(C(=O)c2ccc(S(C)(=O)=O)c(C=CC#N)c2C)cnn1C` [compound 229], the “Growth inhibition rate (%) Barnyardgrass” value in experiment [1] (63 g/ha active ingredient) amounted to 100%. Further, in experiment [2] (63 g/ha active ingredient), the “Growth inhibition rate (%) Crabgrass” value was 100%. The “Growth inhibition rate (%) Greenfoxtail” value in experiment [3] (63 g/ha active ingredient) came out at 100%. The “Growth inhibition rate (%) redroot pigweed” value in [4] (63 g/ha active ingredient) was found to be 100%. Moreover, the “Growth inhibition rate (%) Prickly sida” value in experiment [5] (63 g/ha active ingredient) came to 98%. Further, the “Growth inhibition rate (%) Velvetleaf” value in experiment [6] (63 g/ha active ingredient) stood at 100%. The “Growth inhibition rate (%) Rice” value in [7] (63 g/ha active ingredient) is listed as 95%. In addition, in [8], the “Growth inhibition rate (%) Wheat” value is reported as 50%. In [9] (63 g/ha active ingredient), the “Growth inhibition rate (%) Corn” value was 60%. Further, the “Growth inhibition rate (%) Soybean” value in experiment [10] (63 g/ha active ingredient) was found to be 98%.

Consider `CCSC(=O)Oc1c(C(=O)c2ccc(S(C)(=O)=O)c(CCC#N)c2C)cnn1C` [compound 230], for which, in experiment [1] (63 g/ha active ingredient), the “Growth inhibition rate (%) Barnyardgrass” value turned out to be 100%. Besides, in experiment [2] (63 g/ha active ingredient), the “Growth inhibition rate (%) Crabgrass” value was 100%. For the same compound, the “Growth inhibition rate (%) Greenfoxtail” value in [3] (63 g/ha active ingredient) is given as 100%. In addition, the “Growth inhibition rate (%) redroot pigweed” value in experiment [4] (63 g/ha active ingredient) was 100%. Also, the “Growth inhibition rate (%) Prickly sida” value in experiment [5] (63 g/ha active ingredient) came out at 80%. For the same compound, the “Growth inhibition rate (%) Velvetleaf” value in experiment [6] (63 g/ha active ingredient) was found to be 95%. In experiment [7] (63 g/ha active ingredient), the “Growth inhibition rate (%) Rice” value was 95%. Moreover, the “Growth inhibition rate (%) Wheat” value in experiment [8] is reported as 40%. Also, the “Growth inhibition rate (%) Corn” value in [9] (63 g/ha active ingredient) is 0%. Also, the “Growth inhibition rate (%) Soybean” value in experiment [10] (63 g/ha active ingredient) was 100%.

For `CCSC(=O)Oc1c(C(=O)c2ccc(S(C)(=O)=O)c(CC(N)=S)c2C)cnn1C` [compound 232], the “Growth inhibition rate (%) Barnyardgrass” value in experiment [1] (63 g/ha active ingredient) turned out to be 90%. The “Growth inhibition rate (%) Crabgrass” value in experiment [2] (63 g/ha active ingredient) is on record as 95%. In addition, the “Growth inhibition rate (%) Greenfoxtail” value in [3] (63 g/ha active ingredient) is listed as 95%. Moreover, in experiment [5] (63 g/ha active ingredient), the “Growth inhibition rate (%) Prickly sida” value came to 70%. Besides, the “Growth inhibition rate (%) Velvetleaf” value in [6] (63 g/ha active ingredient) is listed as 90%. The “Growth inhibition rate (%) Rice” value in [7] (63 g/ha active ingredient) worked out at 95%. Also, the “Growth inhibition rate (%) Wheat” value in experiment [8] amounted to 0%. In addition, the “Growth inhibition rate (%) Corn” value in [9] (63 g/ha active ingredient) is recorded as 0%. For the same compound, the “Growth inhibition rate (%) Soybean” value in experiment [10] (63 g/ha active ingredient) turned out to be 90%.

On to `CCSC(=O)Oc1c(C(=O)c2ccc(S(C)(=O)=O)c(CC3OCCO3)c2C)cnn1C` [compound 238], for which the “Growth inhibition rate (%) Barnyardgrass” value in experiment [1] (63 g/ha active ingredient) worked out at 100%. Moreover, the “Growth inhibition rate (%) Crabgrass” value in experiment [2] (63 g/ha active ingredient) was 98%. Besides, in experiment [3] (63 g/ha active ingredient), the “Growth inhibition rate (%) Greenfoxtail” value stood at 98%. In [4] (63 g/ha active ingredient), the “Growth inhibition rate (%) redroot pigweed” value was found to be 100%. For the same compound, the “Growth inhibition rate (%) Prickly sida” value in experiment [5] (63 g/ha active ingredient) is reported as 98%. Besides, in experiment [6] (63 g/ha active ingredient), the “Growth inhibition rate (%) Velvetleaf” value was 100%. Besides, the “Growth inhibition rate (%) Rice” value in experiment [7] (63 g/ha active ingredient) is listed as 90%. Besides, the “Growth inhibition rate (%) Wheat” value in experiment [8] was determined as 10%. In addition, in experiment [9] (63 g/ha active ingredient), the “Growth inhibition rate (%) Corn” value came to 0%. For the same compound, the “Growth inhibition rate (%) Soybean” value in experiment [10] (63 g/ha active ingredient) turned out to be 98%.

Take `CCC(C)SC(=O)Oc1c(C(=O)c2ccc(S(C)(=O)=O)c(OCCOC)c2C)cnn1C` (centres unmarked) [compound 239]: in [1] (31 g/ha active ingredient), the “Growth inhibition rate (%) Barnyardgrass” value is on record as 98%. In addition, the “Growth inhibition rate (%) Crabgrass” value in experiment [2] (31 g/ha active ingredient) came to 100%. Further, the “Growth inhibition rate (%) Greenfoxtail” value in experiment [3] (31 g/ha active ingredient) is listed as 100%. The “Growth inhibition rate (%) Prickly sida” value in experiment [5] (31 g/ha active ingredient) is given as 80%. The “Growth inhibition rate (%) Velvetleaf” value in experiment [6] (31 g/ha active ingredient) is 100%. Further, the “Growth inhibition rate (%) Rice” value in [7] (31 g/ha active ingredient) worked out at 85%. In addition, the “Growth inhibition rate (%) Corn” value in [9] (31 g/ha active ingredient) is given as 0%. Besides, in experiment [10] (31 g/ha active ingredient), the “Growth inhibition rate (%) Soybean” value came to 100%.

In the case of `COCCOc1c(S(C)(=O)=O)ccc(C(=O)c2cnn(C)c2OC(=O)SC(C)(C)C)c1C` [compound 241], the “Growth inhibition rate (%) Barnyardgrass” value in experiment [1] (31 g/ha active ingredient) was 100%. In addition, in experiment [2] (31 g/ha active ingredient), the “Growth inhibition rate (%) Crabgrass” value is given as 98%. For the same compound, in [3] (31 g/ha active ingredient), the “Growth inhibition rate (%) Greenfoxtail” value is recorded as 100%. Moreover, in experiment [4] (31 g/ha active ingredient), the “Growth inhibition rate (%) redroot pigweed” value is given as 100%. Also, in experiment [5] (31 g/ha active ingredient), the “Growth inhibition rate (%) Prickly sida” value is reported as 90%. Also, the “Growth inhibition rate (%) Velvetleaf” value in experiment [6] (31 g/ha active ingredient) amounted to 100%. In [7] (31 g/ha active ingredient), the “Growth inhibition rate (%) Rice” value stood at 90%. The “Growth inhibition rate (%) Corn” value in [9] (31 g/ha active ingredient) amounted to 0%. The “Growth inhibition rate (%) Soybean” value in [10] (31 g/ha active ingredient) is recorded as 100%.
